Tests used:
[1] = Storage stability of formulated compounds; assay type: physicochemical
Source text: The solutions of the free bases of the compound of Structure I are alkaline, and can absorb atmospheric carbon dioxide, which can compromise the stability of the solutions and accelerate their hydrolysis or other degradation. The free bases of the compounds of Structure I may be stabilized by addition of small amounts of basic compounds, for example of sodium hydroxide.
The compounds of Structure I can be converted to solid solutions by quick solidification by cooling of their solution in compounds which are solid at room temperature. For example, if compound VI is added, in amount of up to 3% to melted polyethylene glycol, and the resulted solution is cooled quickly, preferably in thin film, a solid solution of compound VI is formed. […] The stability of the solid solutions can be further enhanced by addition of traces of strong bases, as for example, of sodium hydroxide. The preferred solids for the preparing of solid solution of compounds of Structure I have melting points above 40° C. and below 120° C., are well soluble in aqueous media, are neutral in chemical character, and have no adverse effect on the sample to be treated by the process, or on its intended use.

Cytochrome C = Cytochrome C (Equus caballus, UniProt P00004); experiment: Reactivity with Cytochrome C (electrospray MS); assay type: biochemical; conditions: 8 μM protein; 0.1, 1, 10 mM compound; pH 7.0, 40° C.; 1, 4 and 30 h
Cytochrome C, sequence (P00004 whole entry): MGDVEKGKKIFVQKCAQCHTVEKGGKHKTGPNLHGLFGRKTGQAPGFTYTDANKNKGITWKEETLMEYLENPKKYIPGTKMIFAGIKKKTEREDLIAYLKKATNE
Source text: Using alkylating molecules to inactivate pathogens in blood product has potentially harmful side effect—their reaction with proteins may create neoantigens, i.e., they may become haptens. To assess the hapten potential of the compounds of Structure I, their ability to modify Cytochrome C was studied. Cytochrome C (MW of 12384 Da) was selected as a model protein because it contains a number of amino acids with nucleophilic side chains: 19 Lys, 2 Cys, 3 Asp, 9 Glu, 3 His, and 4 Tyr, which are potential targets for alkylation by the compounds of Structure I. Cytochrome C, 0.1 mg/mL (8 μM) solution in phosphate buffered saline was incubated with 0 (control), 0.1, 1, and 10 mM of compounds VI or X at pH 7.0 for 30 h at 40° C. Aliquots of the incubation mixtures were analyzed at 1, 4 and 30 h by electrospray mass spectrometry in the positive ionization mode with direct infusion into a LCQ Advantage mass spectrometer (Thermo-Finnigan, San Jose, CA) for the formation of covalent adducts of the protein with the test compounds.

B. cereus [2] = experiment: Bacterial inactivation in Ringer's solution, colony agar plate count; assay type: cell-based; conditions: 100 μM, RT, 1 h treatment
Protocol: (§1) A panel of G+F and G-bacteria were inactivated in their respective growth medium using compound VI, compound X, and compound XIV. All cells were grown in corresponding media to middle log phase, collected by centrifugation, re-suspended in Ringer's solution (RS), and treated at RT with 100 μM of compound VI, compound X, and compound XIV, which were added to the suspension as 100× concentrate in RS. Controls received RS only. At the end of the incubation, unreacted compound VI, compound X, and compound XIV were neutralized with 10 mM sodium thiophosphate during incubation at RT for 30 min. The viable cells were enumerated using serial dilutions by standard colony agar plate count. Table 1 summarizes the typical results of 1 h treatment of E. coli, P. fluorescens, Y. enterocolitica, B. cereus, S. aureus, and S. epidermidis with compound VI, compound X, and compound XIV.

E. coli = experiment: as above; assay type: cell-based; conditions: 100 μM, RT, 1 h treatment
Protocol: as §1

P. fluorescens [3] = experiment: as above; assay type: cell-based; conditions: 100 μM, RT, 1 h treatment
Protocol: as §1

S. aureus = experiment: as above; assay type: cell-based; conditions: 100 μM, RT, 1 h treatment
Protocol: as §1

[4] = tested on: Human respiratory syncytial virus (RSV); experiment: Viral inactivation, modified plaque assay; assay type: cell-based; conditions: 100 μM, RT
Protocol: Human respiratory syncytial virus (RSV) was inactivated by using Compound VI or Compound X. For that purpose, sucrose gradient-purified virus was treated with 100 μM of Compound VI and Compound X at RT. […] The virus titers were determined using standard 10× serial dilutions in a modified plaque assay. For mock-treated virus no significant changes in RSV infectivity were found even after 6 h incubation at RT (in different experiments, the reduction of titers were in the range of 0.11-0.36 Login PFU/mL).
Inactivation of RSV with different concentrations of Compound XVI at RT and 40° C. was performed as described in Example 9.

B. cereus [5] = experiment: Bacterial inactivation in WB, LB and RBCC, growth/no growth; assay type: cell-based; parameters: key: “+” Growth; “−” No growth; conditions: 6 h at RT
Protocol: (§2) Two G− species, Y. enterocolitica and P. fluorescens, both psychrophiles, and two G+ bacteria, S. epidermids and B. cereus, all known blood contaminants, were used in this study. All blood samples were spiked with approximately 0.1% bacterial stock suspension prepared in RS and left for equilibration at RT for 30 min. Freshly grown overnight bacterial cultures were used for each spiking. Compound VI and compound X were added to spiked blood to final concentrations of 100, 250, and 500 μM. Control samples (Ctr) received solvent only. Incubation was carried out at RT for 6 h followed by the addition of an inactivator, 100x Na thiosulfate, and additional incubation at RT for 2 h. After the incubation and quenching, aliquots were taken for serial dilutions and plate drop-counting and the bacterial growth-promoting solution (containing tryptone, peptone, yeast extract and casamino acids) was added to the remaining volumes. The growth/no growth results were confirmed by streaking agar plates.

P. fluorescens [6] = experiment: as above; assay type: cell-based; parameters: key: “+” Growth; “−” No growth; conditions: 6 h at RT
Protocol: as §2

S. epidermidis = experiment: as above; assay type: cell-based; parameters: key: “+” Growth; “−” No growth; conditions: 6 h at RT
Protocol: as §2

Y. enterocolitica = experiment: as above; assay type: cell-based; parameters: key: “+” Growth; “−” No growth; conditions: 6 h at RT
Protocol: as §2

[7] = row 1 h, footnote c: time points were 2, 4, and 6 h (2 h)
[8] = row 3 h, footnote c: time points were 2, 4, and 6 h (4 h)

For CN(CCCCN(C)CCCN1CC1)CCCN(C)CCCN1CC1 [Compound X], the “long term storage stability” value ([1]; glycerol solution, addition of 0.1% of sodium hydroxide) was “significantly stabilized”, the “covalent adducts with cytochrome C” value (Cytochrome C) was “absence of covalent adducts” and the Titer (B. cereus [2]) was at most 1.00 Log10CFU/mL. The Titer (E. coli) was 3.98 Log10CFU/mL, the Titer (P. fluorescens [3]) was at most 1.00 Log10CFU/mL and the Titer (S. aureus) was 6.70 Log10CFU/mL. It also gave an RSV titer ([4]; incubation 6 h) of 1.95 Log10PFU/mL, an RSV titer [4, 7] of 4.95 Log10PFU/mL and an RSV titer [4, 8] of 3.48 Log10PFU/mL. The “Growth / No growth” value (B. cereus [5]; LB, 100 μM) was “−”, the “Growth / No growth” value (B. cereus [5]; LB, 250 μM) was “−” and the “Growth / No growth” value (B. cereus [5]; RBCC, 250 μM) was “−”. For the same molecule, the “Growth / No growth” value (B. cereus [5]; WB, 100 μM) was “−”, the “Growth / No growth” value (B. cereus [5]; WB, 250 μM) was “−” and the “Growth / No growth” value (B. cereus [5]; WB, 500 μM) was “−”. The “Growth / No growth” value (P. fluorescens [6]; LB, 100 μM) was “−”, the “Growth / No growth” value (P. fluorescens [6]; LB, 250 μM) was “−” and the “Growth / No growth” value (P. fluorescens [6]; RBCC, 100 μM) was “−”. The “Growth / No growth” value (P. fluorescens [6]; RBCC, 250 μM) was “−”, the “Growth / No growth” value (P. fluorescens [6]; WB, 100 μM) was “−” and the “Growth / No growth” value (P. fluorescens [6]; WB, 250 μM) was “−”. For the same molecule, the “Growth / No growth” value (S. epidermidis; LB, 100 μM) was “−”, the “Growth / No growth” value (S. epidermidis; LB, 250 μM) was “−” and the “Growth / No growth” value (S. epidermidis; RBCC, 100 μM) was “−”. For the same molecule, the “Growth / No growth” value (S. epidermidis; RBCC, 250 μM) was “−”, the “Growth / No growth” value (S. epidermidis; WB, 100 μM) was “−” and the “Growth / No growth” value (S. epidermidis; WB, 250 μM) was “−”. For the same molecule, the “Growth / No growth” value (Y. enterocolitica; LB, 100 μM) was “−”, the “Growth / No growth” value (Y. enterocolitica; LB, 250 μM) was “−” and the “Growth / No growth” value (Y. enterocolitica; RBCC, 100 μM) was “−”. For the same molecule, the “Growth / No growth” value (Y. enterocolitica; RBCC, 250 μM) was “−”, the “Growth / No growth” value (Y. enterocolitica; WB, 100 μM) was “−” and the “Growth / No growth” value (Y. enterocolitica; WB, 250 μM) was “−”.

In the case of CN(CCCCN(C)CCCN1CC1)CCCN1CC1 [Compound VI, N^1,N^4-bis(3-(aziridin-1-yl)propyl)-N^1,N^4-dimethylbutane-1,4-diamine], the storage stability [1] is reported as “significantly higher storage stability”, the “covalent adducts with cytochrome C” value (Cytochrome C) is reported as “absence of covalent adducts” and the Titer (B. cereus [2]) is reported as 2.45 Log10CFU/mL. For the same molecule, the Titer (E. coli) was 4.60 Log10CFU/mL, the Titer (P. fluorescens [3]) was 2.78 Log10CFU/mL and the Titer (S. aureus) was 7.08 Log10CFU/mL. For the same molecule, the RSV titer ([4]; incubation 6 h) was “below the limit of detection and BLD”, the RSV titer [4, 7] was 4.52 Log10PFU/mL and the RSV titer [4, 8] was 1.89 Log10PFU/mL. The “Growth / No growth” value (B. cereus [5]; LB, 100 μM) was “−”, the “Growth / No growth” value (B. cereus [5]; LB, 250 μM) was “−” and the “Growth / No growth” value (B. cereus [5]; LB, 500 μM) was “−”. For the same molecule, the “Growth / No growth” value (B. cereus [5]; RBCC, 100 μM) was “+”, the “Growth / No growth” value (B. cereus [5]; RBCC, 250 μM) was “−” and the “Growth / No growth” value (B. cereus [5]; RBCC, 500 μM) was “−”. For the same molecule, the “Growth / No growth” value (B. cereus [5]; WB, 100 μM) was “+”, the “Growth / No growth” value (B. cereus [5]; WB, 250 μM) was “−” and the “Growth / No growth” value (B. cereus [5]; WB, 500 μM) was “−”. The “Growth / No growth” value (P. fluorescens [6]; LB, 100 μM) was “−”, the “Growth / No growth” value (P. fluorescens [6]; LB, 250 μM) was “−” and the “Growth / No growth” value (P. fluorescens [6]; LB, 500 μM) was “−”. The “Growth / No growth” value (P. fluorescens [6]; RBCC, 100 μM) was “−”, the “Growth / No growth” value (P. fluorescens [6]; RBCC, 250 μM) was “−” and the “Growth / No growth” value (P. fluorescens [6]; RBCC, 500 μM) was “−”. The “Growth / No growth” value (P. fluorescens [6]; WB, 100 μM) was “−”, the “Growth / No growth” value (P. fluorescens [6]; WB, 250 μM) was “−” and the “Growth / No growth” value (P. fluorescens [6]; WB, 500 μM) was “−”. The “Growth / No growth” value (S. epidermidis; LB, 100 μM) was “−”, the “Growth / No growth” value (S. epidermidis; LB, 250 μM) was “−” and the “Growth / No growth” value (S. epidermidis; LB, 500 μM) was “−”. For the same molecule, the “Growth / No growth” value (S. epidermidis; RBCC, 100 μM) was “−”, the “Growth / No growth” value (S. epidermidis; RBCC, 250 μM) was “−” and the “Growth / No growth” value (S. epidermidis; RBCC, 500 μM) was “−”. The “Growth / No growth” value (S. epidermidis; WB, 100 μM) was “−”, the “Growth / No growth” value (S. epidermidis; WB, 250 μM) was “−” and the “Growth / No growth” value (S. epidermidis; WB, 500 μM) was “−”. For the same molecule, the “Growth / No growth” value (Y. enterocolitica; LB, 100 μM) was “−”, the “Growth / No growth” value (Y. enterocolitica; LB, 250 μM) was “−” and the “Growth / No growth” value (Y. enterocolitica; LB, 500 μM) was “−”. For the same molecule, the “Growth / No growth” value (Y. enterocolitica; RBCC, 100 μM) was “−”, the “Growth / No growth” value (Y. enterocolitica; RBCC, 250 μM) was “−” and the “Growth / No growth” value (Y. enterocolitica; RBCC, 500 μM) was “−”. For the same molecule, the “Growth / No growth” value (Y. enterocolitica; WB, 100 μM) was “−”, the “Growth / No growth” value (Y. enterocolitica; WB, 250 μM) was “−” and the “Growth / No growth” value (Y. enterocolitica; WB, 500 μM) was “−”.
